The test system of assay [1] is c-Myc expression. Kind of assay: c-Myc ELISA assay in 22RV1 cells. The class given is cell-based, human. The protocol: It is composed of a BRD4-binding warhead which is connected to a VHL-binding warhead by a linear connector. […] Either the inhibition of BRD4 (by binding and blocking the active site of BRD4) or the degradation of BRD4 leads to the down-regulation of the expression level of a downstream protein c-Myc. […] MD simulation of a ternary system composed of BRD4 bromodomain 1, the ligand L and the complex of VHL with EB and EC in the presence of explicit water was performed.
The connector linking the BRD-4 binding warhead and the cereblon-binding warhead was systematically probed from 2 to 8 atoms. For comparison, the parent inhibitor of BRD4 (compound JQ1) was also prepared. […] The expression level of a downstream protein c-Myc was measured. In this assay, either the inhibition of BRD4 (by binding and blocking the active site of BRD4) or the degradation of BRD4 leads to the down-regulation of the expression level of c-Myc.
The connector linking the BRD4 warhead and the VHL-binding warhead was systematically probed from 5 to 19 atoms. […] The expression level of a downstream protein c-Myc was measured. In this assay, either the inhibition of BRD4 (e.g., by binding and blocking the active site of BRD4) or the degradation of BRD4 results in the down-regulation of the expression level of c-Myc.
c-Myc ELISA Assay Protocol
22RV-1 cells were purchased from ATCC and cultured in RPMI+10% FBS media. Cells were harvested using trypsin (Gibco #25200-114), counted and seeded at 30,000 cells/well at a volume of 75 μL/well in RPMI+10% FBS media in 96-well plates. The cells were dosed with compounds diluted in 0.1% DMSO, incubated for 18h then washed and lysed in 50 uL RIPA buffer (50 mM Tris pH8, 150 mM NaCl, 1% Tx-100, 0.1% SDS, 0.5% sodium deoxycholate) supplemented with protease and phosphatase inhibitors. The lysates were clarified at 4000 rpm at 4° C. for 10 minutes then aliquots were added into a 96-well ELISA plate of Novex Human c-Myc ELISA kit from Life Technologies Catalog #KHO2041. 50 µL of c-Myc Detection antibody was added into every well, the plates incubated at room temperature for 3 hrs, then washed with ELISA wash buffer. 100 μL of the anti-rabbit IgG-HRP secondary antibody was added to each well and incubated at room temperature for 30 minutes. The plates were washed with ELISA wash buffer, 100 μL TMB added to each well, and then monitored every 5 minutes for a color change. 100 μL of stop solution is added and the plates read at 450 nm.
In general terms: ELISA stands for enzyme-linked immunosorbent assay.

The target in assay [2] is T1, AR (Homo sapiens, UniProt P10275+P40337, T878A).
T1 construct: degradation Dmax of AR in LNCaP cells; endogenous in cells; host or cells: LNCaP
Kind of assay: AR degradation in LNCaP cells (androgen receptor ELISA). The conditions noted are these: LNCaP cells. The class given is cell-based. As for the experimental part:
The connector linking the AR-binding warhead and the VHL-binding warhead was systematically probed from 4 to 23 atoms. The AR degradation potency DC50 and the maximum percentage of degradation Dmax of AR in LNCaP cells were measured for each of these compounds. […] The binary binding potency with respect to AR was also measured for some of the compounds by the cell-based ligand (R1881) displacement assay. The ratio α between the AR-binding potency and the degradation potency are calculated when it is possible.
Androgen Receptor ELISA Assay
The protocols used with VCaP cells are described below. The androgen receptor ELISA assay was performed using PathScan AR ELISA (Cell Signaling Catalog #12850) according to the following assay steps: […]

[3] abbreviates: 22RV1 cells, BRD4-cereblon series, Table 2.
Where [4] appears, read: 22RV1 cells, BRD4-cereblon series, Table 2, read-out: c-Myc expression inhibition IC50.
[5] abbreviates: 22RV1 cells, BRD4-VHL series, Table 3.
[6] abbreviates: 22RV1 cells, BRD4-VHL series, Table 3, read-out: c-Myc expression inhibition IC50.
Setting [7] is: 22RV1 cells, connector composition changes, Table 4.
Setting [8] is: 22RV1 cells, connector composition changes, Table 4, read-out: c-Myc expression inhibition IC50.

Like-named read-outs stand apart in the source and are kept apart here.

T1 sequence (Q15370 whole entry): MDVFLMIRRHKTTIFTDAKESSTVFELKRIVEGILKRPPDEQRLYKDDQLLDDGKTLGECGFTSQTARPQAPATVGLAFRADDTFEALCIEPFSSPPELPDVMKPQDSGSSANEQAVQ
T1 sequence (P40337 whole entry): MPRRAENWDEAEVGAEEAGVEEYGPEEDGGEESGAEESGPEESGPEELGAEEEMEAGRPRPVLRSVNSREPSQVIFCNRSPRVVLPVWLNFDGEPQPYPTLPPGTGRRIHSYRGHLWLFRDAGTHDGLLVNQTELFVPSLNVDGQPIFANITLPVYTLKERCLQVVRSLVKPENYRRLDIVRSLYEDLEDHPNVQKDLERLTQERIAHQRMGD
T1 sequence (P10275 whole entry T878A): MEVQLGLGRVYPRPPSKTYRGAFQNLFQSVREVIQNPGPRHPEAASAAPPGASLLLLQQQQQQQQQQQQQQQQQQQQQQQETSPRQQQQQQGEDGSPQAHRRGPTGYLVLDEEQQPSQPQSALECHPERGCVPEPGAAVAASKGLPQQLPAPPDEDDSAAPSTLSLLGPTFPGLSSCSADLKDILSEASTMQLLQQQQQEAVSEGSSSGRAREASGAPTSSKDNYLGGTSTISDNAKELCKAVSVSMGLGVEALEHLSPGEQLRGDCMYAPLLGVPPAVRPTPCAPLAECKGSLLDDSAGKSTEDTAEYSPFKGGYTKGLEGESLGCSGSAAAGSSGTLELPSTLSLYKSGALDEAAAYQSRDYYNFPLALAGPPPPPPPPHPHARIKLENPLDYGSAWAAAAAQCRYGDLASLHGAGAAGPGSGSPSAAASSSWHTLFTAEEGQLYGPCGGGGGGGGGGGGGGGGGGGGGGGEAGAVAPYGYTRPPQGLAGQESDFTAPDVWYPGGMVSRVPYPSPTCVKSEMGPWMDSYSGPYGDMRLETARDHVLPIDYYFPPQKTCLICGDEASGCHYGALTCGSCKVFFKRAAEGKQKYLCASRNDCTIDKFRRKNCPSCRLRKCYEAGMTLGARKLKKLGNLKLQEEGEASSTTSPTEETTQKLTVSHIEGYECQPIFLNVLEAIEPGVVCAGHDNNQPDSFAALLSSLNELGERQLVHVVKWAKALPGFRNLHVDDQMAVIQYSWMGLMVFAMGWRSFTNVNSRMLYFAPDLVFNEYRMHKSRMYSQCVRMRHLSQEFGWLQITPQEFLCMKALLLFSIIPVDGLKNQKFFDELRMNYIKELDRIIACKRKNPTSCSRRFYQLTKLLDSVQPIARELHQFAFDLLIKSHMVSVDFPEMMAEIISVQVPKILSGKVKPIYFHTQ
T1 sequence (Q15369 whole entry, further chain): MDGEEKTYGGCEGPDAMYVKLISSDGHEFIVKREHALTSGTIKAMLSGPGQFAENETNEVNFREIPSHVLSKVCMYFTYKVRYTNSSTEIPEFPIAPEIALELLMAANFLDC

What is called IC50 is the point on the concentration scale where inhibition reaches its midpoint. Turning to `Cc1sc2c(c1C)C(c1ccc(Cl)cc1)=NC(CC(=O)NCCNc1cccc3c1C(=O)N(C1CCC(=O)NC1=O)C3=O)c1nnc(C)n1-2` (mixture of isomers) [Compound 19], in assay [1] (setting [3]), the “maximum inhibition Imax” value is recorded as 96%. Besides, the IC50 in assay [1] (setting [4]) was 187 nM.

Take `Cc1sc2c(c1C)C(c1ccc(Cl)cc1)=NC(CC(=O)NCCCNc1cccc3c1C(=O)N(C1CCC(=O)NC1=O)C3=O)c1nnc(C)n1-2` (mixture of isomers) [Compound 20]: the “maximum inhibition Imax” value in assay [1] (setting [3]) is recorded as 93%. In assay [1] (setting [4]), the concentration for half-maximal inhibition (IC50) came out at 123 nM.

`Cc1sc2c(c1C)C(c1ccc(Cl)cc1)=NC(CC(=O)NCCCCNc1cccc3c1C(=O)N(C1CCC(=O)NC1=O)C3=O)c1nnc(C)n1-2` (mixture of isomers) [Compound 21]: the “maximum inhibition Imax” value in assay [1] (setting [3]) is 88%. Also, in assay [1] (setting [4]), the IC50 was 250 nM.

Regarding `Cc1sc2c(c1C)C(c1ccc(Cl)cc1)=NC(CC(=O)NCCCCCNc1cccc3c1C(=O)N(C1CCC(=O)NC1=O)C3=O)c1nnc(C)n1-2` (mixture of isomers) [Compound 22], the “maximum inhibition Imax” value in assay [1] (setting [3]) stood at 100%. In addition, the IC50 in assay [1] (setting [4]) worked out at 3.79 nM.

With `Cc1sc2c(c1C)C(c1ccc(Cl)cc1)=NC(CC(=O)NCCOCCNc1cccc3c1C(=O)N(C1CCC(=O)NC1=O)C3=O)c1nnc(C)n1-2` (mixture of isomers) [Compound 23], the “maximum inhibition Imax” value in assay [1] (setting [3]) was determined as 100%. In addition, the half-maximal inhibitory concentration (IC50) in assay [1] (setting [4]) turned out to be 0.682 nM.

For the compound `Cc1sc2c(c1C)C(c1ccc(Cl)cc1)=NC(CC(=O)NCCOCCOCCNc1cccc3c1C(=O)N(C1CCC(=O)NC1=O)C3=O)c1nnc(C)n1-2` (mixture of isomers) [Compound 25], in assay [1] (setting [3]), the “maximum inhibition Imax” value turned out to be 100%. Besides, the IC50 in assay [1] (setting [4]) stood at 13 nM.

For `Cc1ncsc1-c1ccc(CNC(=O)[C@@H]2C[C@@H](O)CN2C(=O)[C@@H](NC(=O)CCOCCOc2ccc(N3C(=S)N(c4ccc(C#N)c(C(F)(F)F)c4)C(=O)C3(C)C)cc2)C(C)(C)C)cc1` [Compound 3], the “maximum AR degradation Dmax” value in assay [2] came out at 56%.

As usually defined, the DC50 is the concentration at which degradation of the target reaches its halfway point. Regarding `Cc1ncsc1-c1ccc(CNC(=O)[C@@H]2C[C@@H](O)CN2C(=O)[C@@H](NC(=O)CCOCCCOc2ccc(N3C(=S)N(c4ccc(C#N)c(C(F)(F)F)c4)C(=O)C3(C)C)cc2)C(C)(C)C)cc1` [Compound 4], the “maximum AR degradation Dmax” value in assay [2] is recorded as 18%. In assay [2] (read-out: AR degradation potency DC50), the DC50 was greater than 3000 nM.

Consider `Cc1ncsc1-c1ccc(CNC(=O)[C@@H]2C[C@@H](O)CN2C(=O)[C@@H](NC(=O)COCCCNC(=O)C[C@@H]2N=C(c3ccc(Cl)cc3)c3c(sc(C)c3C)-n3c(C)nnc32)C(C)(C)C)cc1` [Compound 26], for which, in assay [1] (setting [5]), the “maximum inhibition Imax” value is 98%. Further, the IC50 in assay [1] (setting [6]) was found to be 95 nM.

As for `Cc1ncsc1-c1ccc(CNC(=O)[C@@H]2C[C@@H](O)CN2C(=O)[C@@H](NC(=O)COCCCCNC(=O)C[C@@H]2N=C(c3ccc(Cl)cc3)c3c(sc(C)c3C)-n3c(C)nnc32)C(C)(C)C)cc1` [Compound 27], in assay [1] (setting [5]), the “maximum inhibition Imax” value came out at 100%. The concentration for half-maximal inhibition (IC50) in assay [1] (setting [6]) is 78 nM.

On to `Cc1ncsc1-c1ccc(CNC(=O)[C@@H]2C[C@@H](O)CN2C(=O)[C@@H](NC(=O)COCCOCCNC(=O)C[C@@H]2N=C(c3ccc(Cl)cc3)c3c(sc(C)c3C)-n3c(C)nnc32)C(C)(C)C)cc1` [Compound 28], for which the “maximum inhibition Imax” value in assay [1] (setting [5]) came to 94%. Besides, the IC50 in assay [1] (setting [6]) is 80.5 nM.

With `Cc1ncsc1-c1ccc(CNC(=O)[C@@H]2C[C@@H](O)CN2C(=O)[C@@H](NC(=O)COCCCOCCNC(=O)C[C@@H]2N=C(c3ccc(Cl)cc3)c3c(sc(C)c3C)-n3c(C)nnc32)C(C)(C)C)cc1` [Compound 29], the “maximum inhibition Imax” value in assay [1] (setting [5]) and in assay [1] (setting [7]) was 97% each time. In addition, the IC50 in assay [1] (setting [6]) and in assay [1] (setting [8]) was 0.16 nM throughout.

On to `Cc1ncsc1-c1ccc(CNC(=O)[C@@H]2C[C@@H](O)CN2C(=O)[C@@H](NC(=O)COCCCOCCCNC(=O)C[C@@H]2N=C(c3ccc(Cl)cc3)c3c(sc(C)c3C)-n3c(C)nnc32)C(C)(C)C)cc1` [Compound 30], for which the “maximum inhibition Imax” value in assay [1] (setting [5]) is 100%. The IC50 in assay [1] (setting [6]) is 19.4 nM.

`Cc1ncsc1-c1ccc(CNC(=O)[C@@H]2C[C@@H](O)CN2C(=O)[C@@H](NC(=O)COCCOCCOCCNC(=O)C[C@@H]2N=C(c3ccc(Cl)cc3)c3c(sc(C)c3C)-n3c(C)nnc32)C(C)(C)C)cc1` [Compound 31]: the “maximum inhibition Imax” value in assay [1] (setting [5]) turned out to be 99.3%. In addition, the IC50 in assay [1] (setting [6]) was found to be 1.22 nM.

Regarding `Cc1ncsc1-c1ccc(CNC(=O)[C@@H]2C[C@@H](O)CN2C(=O)[C@@H](NC(=O)COCCCOCCCCCNC(=O)C[C@@H]2N=C(c3ccc(Cl)cc3)c3c(sc(C)c3C)-n3c(C)nnc32)C(C)(C)C)cc1` [Compound 32], in assay [1] (setting [5]), the “maximum inhibition Imax” value stood at 98%. The IC50 in assay [1] (setting [6]) is 0.86 nM.

In the case of `Cc1ncsc1-c1ccc(CNC(=O)[C@@H]2C[C@@H](O)CN2C(=O)[C@@H](NC(=O)COCCOCCOCCCCNC(=O)C[C@@H]2N=C(c3ccc(Cl)cc3)c3c(sc(C)c3C)-n3c(C)nnc32)C(C)(C)C)cc1` [Compound 33], the “maximum inhibition Imax” value in assay [1] (setting [5]) came out at 97%. Further, in assay [1] (setting [6]), the half-inhibitory concentration (IC50) is 5 nM.

`Cc1ncsc1-c1ccc(CNC(=O)[C@@H]2C[C@@H](O)CN2C(=O)[C@@H](NC(=O)COCCOCCOCCOCCNC(=O)C[C@@H]2N=C(c3ccc(Cl)cc3)c3c(sc(C)c3C)-n3c(C)nnc32)C(C)(C)C)cc1` [Compound 34]: the “maximum inhibition Imax” value in assay [1] (setting [5]) is 94%. Also, the 50% inhibitory concentration (IC50) in assay [1] (setting [6]) worked out at 34 nM.

In the case of `Cc1ncsc1-c1ccc(CNC(=O)[C@@H]2C[C@@H](O)CN2C(=O)[C@@H](NC(=O)COCCOCCOCCCCOCCOCCNC(=O)C[C@@H]2N=C(c3ccc(Cl)cc3)c3c(sc(C)c3C)-n3c(C)nnc32)C(C)(C)C)cc1` [Compound 37], the “maximum inhibition Imax” value in assay [1] (setting [5]) was found to be 96.4%. For the same compound, in assay [1] (setting [6]), the IC50 was determined as 202 nM.

As for `Cc1ncsc1-c1ccc(CNC(=O)[C@@H]2C[C@@H](O)CN2C(=O)[C@@H](NC(=O)COCCOCCOCCOCCOCCOCCNC(=O)C[C@@H]2N=C(c3ccc(Cl)cc3)c3c(sc(C)c3C)-n3c(C)nnc32)C(C)(C)C)cc1` [Compound 38], the “maximum inhibition Imax” value in assay [1] (setting [5]) is listed as 62.2%. In addition, the half-inhibitory concentration (IC50) in assay [1] (setting [6]) worked out at 707 nM.

Regarding `Cc1ncsc1-c1ccc(CNC(=O)[C@@H]2C[C@@H](O)CN2C(=O)[C@@H](NC(=O)CCCCCCCCNC(=O)C[C@@H]2N=C(c3ccc(Cl)cc3)c3c(sc(C)c3C)-n3c(C)nnc32)C(C)(C)C)cc1` [Compound 39], the “maximum inhibition Imax” value in assay [1] (setting [7]) is listed as 95.4%. The IC50 in assay [1] (setting [8]) is 10.2 nM.

Take `Cc1ncsc1-c1ccc(CNC(=O)[C@@H]2C[C@@H](O)CN2C(=O)[C@@H](NC(=O)COCCCSCCNC(=O)C[C@@H]2N=C(c3ccc(Cl)cc3)c3c(sc(C)c3C)-n3c(C)nnc32)C(C)(C)C)cc1` [Compound 40]: the “maximum inhibition Imax” value in assay [1] (setting [7]) amounted to 99%. Further, the IC50 in assay [1] (setting [8]) amounted to 20.9 nM.

Take `Cc1ncsc1-c1ccc(CNC(=O)[C@@H]2C[C@@H](O)CN2C(=O)[C@@H](NC(=O)COCCCCCCNC(=O)C[C@@H]2N=C(c3ccc(Cl)cc3)c3c(sc(C)c3C)-n3c(C)nnc32)C(C)(C)C)cc1` [Compound 41]: the “maximum inhibition Imax” value in assay [1] (setting [7]) was determined as 100%. For the same compound, the IC50 in assay [1] (setting [8]) turned out to be 25.7 nM.

Take `Cc1ncsc1-c1ccc(CNC(=O)[C@@H]2C[C@@H](O)CN2C(=O)[C@@H](NC(=O)COCCCS(=O)(=O)CCNC(=O)C[C@@H]2N=C(c3ccc(Cl)cc3)c3c(sc(C)c3C)-n3c(C)nnc32)C(C)(C)C)cc1` [Compound 42]: the “maximum inhibition Imax” value in assay [1] (setting [7]) was 88.3%. For the same compound, the IC50 in assay [1] (setting [8]) came out at 122 nM.

For `Cc1sc2c(c1C)C(c1ccc(Cl)cc1)=N[C@@H](CC(=O)OC(C)(C)C)c1nnc(C)n1-2` [JQ1, reference compound], the “maximum inhibition Imax” value in assay [1] (setting [3]) came to 93%. Moreover, the 50% inhibitory concentration (IC50) in assay [1] (Homo sapiens, 22Rv1, read-out: c-Myc expression IC50) is 101 nM; in assay [1] (Homo sapiens, 22Rv1, read-out: c-Myc expression inhibition IC50) it was 101 nM.

The record behind these values is patent US12569464B2, “Protein-protein interaction inducing technology” (Arvinas Operations, Inc., priority 2016, dated 2026).
